Key:
Type in all cases: cell-based
human TAS2R43 = target: T1, human TAS2R43 (Homo sapiens, UniProt P59537); assay: Fluo-4 calcium assay, tetracycline-inducible cells stably expressing human TAS2R43 and G16gust44; details: ligand 10 μM
T1 construct: expressed in transfected cells
T1 sequence (P59537 1-309): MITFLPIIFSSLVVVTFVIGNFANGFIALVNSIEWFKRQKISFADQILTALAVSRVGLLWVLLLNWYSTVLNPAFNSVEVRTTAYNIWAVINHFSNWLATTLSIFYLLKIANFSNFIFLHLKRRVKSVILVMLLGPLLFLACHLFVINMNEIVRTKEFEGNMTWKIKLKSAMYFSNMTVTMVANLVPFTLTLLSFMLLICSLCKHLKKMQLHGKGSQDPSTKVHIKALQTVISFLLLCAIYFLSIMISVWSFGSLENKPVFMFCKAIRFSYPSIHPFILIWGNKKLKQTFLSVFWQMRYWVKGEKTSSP
Text: (§1) The following results were obtained:

G-protein only [1] = assay: Fluo-4 calcium assay, G-protein only control (TAS2R43 cell line); details: Gα16gustducin44, ligand 10 μM
Text: as §1

human TAS2R44 = target: T2, human TAS2R44 (Homo sapiens, UniProt P59538); assay: Fluo-4 calcium assay, tetracycline-inducible cells stably expressing human TAS2R44 and G16gust44; details: ligand 10 μM
T2 construct: expressed in transfected cells
T2 sequence (P59538 1-309): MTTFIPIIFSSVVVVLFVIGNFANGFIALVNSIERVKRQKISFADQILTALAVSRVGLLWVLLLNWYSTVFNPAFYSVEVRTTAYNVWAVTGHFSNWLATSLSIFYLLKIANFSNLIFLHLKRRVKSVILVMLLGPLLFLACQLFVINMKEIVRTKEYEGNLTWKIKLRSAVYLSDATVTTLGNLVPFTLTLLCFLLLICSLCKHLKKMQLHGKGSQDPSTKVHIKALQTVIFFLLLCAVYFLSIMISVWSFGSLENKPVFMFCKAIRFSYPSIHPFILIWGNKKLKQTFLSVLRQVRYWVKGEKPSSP
Text: as §1

G-protein only [2] = assay: Fluo-4 calcium assay, G-protein only control (TAS2R44 cell line); details: Gα16gustducin44, ligand 10 μM
Text: as §1

COc1cccc2c1cc([N+](=O)[O-])c1c(C(=O)O)cc3c(c12)OCO3 [aristolochic acid]
increase in mean fluorescence over baseline following ligand addition (human TAS2R43; G-protein + human TAS2R43, Gα16gustducin44): 26766 RFUs | fluorescence signal (in words) (human TAS2R43; HEK293 T-Rex cells, TAS2R43, G16-gustducin 44): robust fluorescence signal | increase in mean fluorescence over baseline following ligand addition (G-protein only [1]): 3955 RFUs | increase in mean fluorescence over baseline following ligand addition (human TAS2R44; G-protein + human TAS2R44, Gα16gustducin44): 17254 RFUs | fluorescence signal (in words) (human TAS2R44; HEK293 T-Rex cells, TAS2R44, G16-gustducin 44): robust fluorescence signal | increase in mean fluorescence over baseline following ligand addition (G-protein only [2]): 5700 RFUs

Reference: patent US8609362B2, “G-proteins” (Givaudan SA, priority 2002, dated 2013)
